# According to patent US7354954B1, “Use of GABA agonists for treatment of spastic disorders, convulsions, and epilepsy” (priority 2000, dated 2008):
# Key:
# Stability in solution = type: physicochemical
# Text: In a preferred embodiment, the compound administered to a patient or subject is the gamma-aminobutyramide, a solubility product obtained by dissolving PROGABIDE in a solvent thereby generating gamma-aminobutyramide and an insoluble ketone. The insoluble ketone (4-chlorophenyl-5-fluoro-2-hydroxyphenylmethanone) is subsequently removed by filtration leaving the pure, stable gamma-aminobutyramide.
# [1] = test system: chronic spastic SCl rat model; assay: Spasticity score (scale adapted from the Ashworth score) in chronic spastic SCI rat model, intrathecal delivery by implantable pump; type: in vivo, Sprague Dawley rats; details: compared with baclofen
# Method: (§1) A study on the use GABAmide was performed to compare its effectiveness to reduce spasticity and assess toxicity via intrathecal delivery in a chronic spastic SCl rat model utilizing an implantable refillable pump.
# (§2) Subjects—Twenty Sprague Dawley rats with severe spinal cord injury and spasticity, which were more than ten weeks from initial weight, drop injury. […] The rats were implanted using the 2 French Fogarty balloon catheter attached to a refillable 1 cc. Pumps (ESOX Minneapolis Minn.) placed surgically in the subcutaneously between the shoulder blades one week earlier that had been effectively delivering preservative free normal saline. The ESOX pump flowed at a rate of 60 μl per day. […] The pump has the advantage that the solution in the pump can be changed so that drugs can be evaluated. GABAmide was placed in the pumps and the animals were evaluated at the times specified below. […] Rats were also assessed for functional changes utilizing the BBB scoring system for motor function and for their ability to walk a series of balance beams without falling that started at 7.7 cm. and decreased in 1 cm increments to 1.7 cm. in diameter (the smallest a normal rat can easily and reliably cross). […] Differences over times were assessed via descriptive statistics, Friedman's analysis, Wilcoxon signed-rank, for nonparametric data (spasticity, BBB score and beam walking).
# [2] = test system: chronic spastic SCl rat model; assay: Ability to walk a series of balance beams (7.7 cm to 1.7 cm) in spastic SCI rats; type: in vivo, Sprague Dawley rats; details: for beam walking, mean: 15 micrograms per day intrathecal
# Method: Subjects—Twenty Sprague Dawley rats with severe spinal cord injury and spasticity, which were more than ten weeks from initial weight, drop injury. […] The rats were implanted using the 2 French Fogarty balloon catheter attached to a refillable 1 cc. Pumps (ESOX Minneapolis Minn.) placed surgically in the subcutaneously between the shoulder blades one week earlier that had been effectively delivering preservative free normal saline. The ESOX pump flowed at a rate of 60 μl per day. The pump initially contained saline solution and the animals were again tested several days after pump placement for spasticity. Design—Rats were randomized to a blinded three-arm study utilizing GABAmide, baclofen and placebo in a cross over design. The pump has the advantage that the solution in the pump can be changed so that drugs can be evaluated. GABAmide was placed in the pumps and the animals were evaluated at the times specified below. Main Outcome Measures—Rats were tested weekly for levels of spasticity: 4) spasms spontaneously occur over a four minute observation period 3) spasms with light touch of the foot 2) spasms with passive movement of the foot and leg by extending the leg 1) spasms with painful stimulation—extend leg and pinch foot 0) no spasms inducible This scale was adapted for use in animals from the Ashworth score (Albright et al., Intrathecal baclofen therapy for spasticity of cerebral origin: Patient selection guidelines 1997), which has been utilized so frequently in human trials and in the clinical management of intrathecal baclofen. Meythaler et al., Arch. Phys. Med. Rehabil. […] Rats were also assessed for functional changes utilizing the BBB scoring system for motor function and for their ability to walk a series of balance beams without falling that started at 7.7 cm. and decreased in 1 cm increments to 1.7 cm. in diameter (the smallest a normal rat can easily and reliably cross). […] Differences over times were assessed via descriptive statistics, Friedman's analysis, Wilcoxon signed-rank, for nonparametric data (spasticity, BBB score and beam walking).
# [3] = test system: chronic spastic SCl rat model; assay: BBB scoring system for motor function in spastic SCI rats; type: in vivo, Sprague Dawley rats
# Method: as §2, with “day. The pump initially contained saline solution and the animals were again tested several days after pump placement for spasticity.” for “day.”
# [4] = test system: chronic spastic SCl rat model; assay: Tolerability of intrathecal delivery in spastic SCI rats; type: in vivo
# Method: as §1, §2
# Solubility in water = type: physicochemical
# canine model = details: 2000 μg/d for 28 days, intrathecal; cited from earlier work
# [5] = 5 micrograms per day intrathecal, throughout the study
Structure (SMILES),stability (Stability in solution),accommodation to spasticity [1],"change in beam walking [2, 5]","change in BBB score [3, 5]",tolerability [4],solubility in water (Solubility in water),"beam walking, mean ([2]; day five of treatment)","beam walking, mean ([2]; day three, baseline 5.2 cm, p=0.01 Friedman's)",histopathology (canine model),"change in BBB score ([3]; 15 micrograms per day intrathecal, day five of treatment)"
"NCCCC(N)=O [GABAmide, gamma-aminobutyramide]",relatively stable for long periods of time,less accommodation to spasticity than baclofen,not statistically significant change,not statistically significant change,well tolerated,soluble in water,,,,
NCC(CC(=O)O)c1ccc(Cl)cc1 (stereo not shown) [baclofen],,,,,,,6.0 cm,2.7 cm,no deleterious histopathology,not significant
